Measurements as given in patent US9403830B2, “Inhibitors of leukotriene production” (Boehringer Ingelheim International GmbH, priority 2012, dated 2016).

Columns and labels:
human LTA4 hydrolase = biological target: T1, human LTA4 hydrolase (Homo sapiens, UniProt P09960); test: LTA4H Enzyme assay (peptidase, Arg-AMC cleavage); assay type: biochemical; settings: LTA4H enzyme 1 nM, Arg-AMC substrate 50 μM, room temperature 1 h, fluorescence 380/460 nm
T1 sequence (P09960 1-611): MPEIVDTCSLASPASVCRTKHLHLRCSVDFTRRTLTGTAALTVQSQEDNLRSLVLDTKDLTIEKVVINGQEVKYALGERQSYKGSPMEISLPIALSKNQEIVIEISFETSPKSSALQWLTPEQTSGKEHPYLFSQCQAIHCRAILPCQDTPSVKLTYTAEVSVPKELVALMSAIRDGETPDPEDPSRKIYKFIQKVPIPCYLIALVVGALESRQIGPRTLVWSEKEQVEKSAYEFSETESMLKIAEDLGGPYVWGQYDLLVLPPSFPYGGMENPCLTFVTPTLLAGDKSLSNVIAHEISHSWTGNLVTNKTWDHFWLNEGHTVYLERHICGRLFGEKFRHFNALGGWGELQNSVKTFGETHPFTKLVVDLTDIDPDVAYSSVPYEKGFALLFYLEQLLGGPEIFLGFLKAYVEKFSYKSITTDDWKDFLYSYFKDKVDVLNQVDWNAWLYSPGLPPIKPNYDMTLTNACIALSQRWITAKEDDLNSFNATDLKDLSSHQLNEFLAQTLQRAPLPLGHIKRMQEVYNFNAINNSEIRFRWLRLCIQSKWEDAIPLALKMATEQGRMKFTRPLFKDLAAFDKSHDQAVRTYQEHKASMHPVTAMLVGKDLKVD
Procedure, shortened: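 Human LTA4H (1 nM final) incubated with compound and Arg-AMC (50 μM final) in 50 mM Tris-HCl pH 7.5, 100 mM KCl, 0.5% BSA, 1 h at room temperature. Product read as AMC fluorescence (ex 380/em 460 nm); IC50 reported.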

[1] = test system: LTB4 synthesis in human whole blood; test: human whole blood (HWB) assay, inhibition of LTB4 production; assay type: cell-based; settings: heparinized human whole blood, calcimycin 20 μM stimulation, plasma LTB4
Procedure, shortened: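 Plasma LTB4, quantified by HTRF immunoassay, is the read-out after calcimycin challenge (20 μM final, 30 min, 37 °C) of heparinized whole blood that had been pretreated with compound for 15 min at 37 °C; values given as IC50.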

Compound	IC50 (human LTA4 hydrolase) [nM]	IC50 [1] [nM]
CC(=O)N1CC2CN(Cc3ccc4cc(Oc5ccc(-c6ccn[nH]6)cn5)ccc4n3)CC2C1 (stereo not shown) [Example 32, 1-(5-{6-[5-(2H-Pyrazol-3-yl)-pyridin-2-yloxy]-quinolin-2-ylmethyl}-hexahydro-pyrrolo[3,4-c]pyrrol-2-yl)-ethanone]	0.85	210
CC(=O)N1CCN(c2ccc3cc(Oc4ccc(-c5ccn[nH]5)cn4)ccc3n2)CC1 [Example 115, 1-(4-{6-[5-(2H-Pyrazol-3-yl)-pyridin-2-yloxy]-quinolin-2-yl}-piperazin-1-yl)-ethanone]	1.7	550
CC(=O)NC1CCN(CCc2coc3cc(Oc4ccc(-c5ccn[nH]5)cn4)ccc23)CC1 [Example 133, N-[1-(2-{6-[5-(2H-Pyrazol-3-yl)-pyridin-2-yloxy]-benzofuran-3-yl}-ethyl)-piperidin-4-yl]-acetamide]	0.35	150
O=C1[C@@H](O)CCN1C1CCN(Cc2ccc3cc(Oc4ccc(-c5ccn[nH]5)cn4)ccc3c2)CC1 [Example 7, (S)-3-Hydroxy-1-(1-{6-[5-(2H-pyrazol-3-yl)-pyridin-2-yloxy]-naphthalen-2-ylmethyl}-piperidin-4-yl)-pyrrolidin-2-one]	0.68	180
c1cc(-c2ccc(Oc3ccc4c(cnn4CCN4CCOCC4)c3)nc2)[nH]n1 [Example 111, 1-(2-Morpholin-4-yl-ethyl)-5-[5-(2H-pyrazol-3-yl)-pyridin-2-yloxy]-1H-indazole]	2	280
O=S1(=O)CCN(Cc2ccc3cc(Oc4ccc(-c5cc[nH]n5)cn4)ccc3n2)CC1 [Example 242, 2-(1,1-Dioxo-1-λ-6-thiomorpholin-4-ylmethyl)-6-[5-(1H-pyrazol-3-yl)-pyridin-2-yloxy]-quinoline]	1.6	210
O=C1OCCCN1C1CCN(Cc2ccc3cc(Oc4ccc(-c5ccn[nH]5)cn4)ccc3n2)CC1 [Example 190, 3-(1-{6-[5-(2H-Pyrazol-3-yl)-pyridin-2-yloxy]-quinolin-2-ylmethyl}-piperidin-4-yl)-[1,3]oxazinan-2-one]	0.53	170
c1cc(-c2ccc(Oc3ccc4nc(OCCN5CCOCC5)sc4c3)cc2)n[nH]1 [Example 232, 2-(2-Morpholin-4-yl-ethoxy)-6-[4-(1H-pyrazol-3-yl)-phenoxy]-benzothiazole]	1.4	160
CN(C(=O)CO)C1CCN(Cc2ccc3cc(Oc4ccc(-c5ccn[nH]5)cn4)ccc3n2)CC1 [Example 33, 2-Hydroxy-N-methyl-N-(1-{6-[5-(2H-pyrazol-3-yl)-pyridin-2-yloxy]-quinolin-2-ylmethyl}-piperidin-4-yl)-acetamide]	0.77	230
CC(=O)N1CCN(CCn2ncc3cc(Oc4ccc(-c5ccn[nH]5)cn4)ccc32)CC1 [Example 94, 1-[4-(2-{5-[5-(2H-Pyrazol-3-yl)-pyridin-2-yloxy]-indazol-1-yl}-ethyl)-piperazin-1-yl]-ethanone]	1.3	150
CC(=O)N1CCN(CCn2ccc3cc(Oc4ccc(-c5ccn[nH]5)cn4)ccc32)CC1 [Example 224, 1-[4-(2-{5-[5-(2H-Pyrazol-3-yl)-pyridin-2-yloxy]-indol-1-yl}-ethyl)-piperazin-1-yl]-ethanone]	2.3	540
CC(=O)NC1CC2CCC(C1)N2Cc1ccc2cc(Oc3ccc(-c4cc[nH]n4)cn3)ccc2n1 (stereo not drawn) [Example 238, N-((endo)-8-{6-[5-(1H-Pyrazol-3-yl)-pyridin-2-yloxy]-quinolin-2-ylmethyl}-8-aza-bicyclo[3.2.1]oct-3-yl)-acetamide]	0.61	250
c1cc(-c2ccc(Oc3ccc4nc(CN5CCCCCC5)ccc4c3)nc2)[nH]n1 [Example 22, 2-Azepan-1-ylmethyl-6-[5-(2H-pyrazol-3-yl)-pyridin-2-yloxy]-quinoline]	0.36	89
CC(=O)NCC1CCN(CC2Cc3ccc(Oc4ccc(-c5ccn[nH]5)cn4)cc3O2)CC1 (stereo not shown) [Example 128, N-(1-{6-[5-(2H-Pyrazol-3-yl)-pyridin-2-yloxy]-2,3-dihydro-benzofuran-2-ylmethyl}-piperidin-4-ylmethyl)-acetamide]	0.74	170
O=C(CO)N1CCCC12CCN(Cc1ccc3cc(Oc4ccc(-c5ccn[nH]5)cn4)ccc3n1)CC2 [Example 50, 2-Hydroxy-1-(8-{6-[5-(2H-pyrazol-3-yl)-pyridin-2-yloxy]-quinolin-2-ylmethyl}-1,8-diaza-spiro[4.5]dec-1-yl)-ethanone]	2.8	1100
O=C(CO)N1CC2CCC(C1)N2Cc1ccc2cc(Oc3ccc(-c4ccn[nH]4)cn3)ccc2n1 [Example 132, 2-Hydroxy-1-(8-{6-[5-(2H-pyrazol-3-yl)-pyridin-2-yloxy]-quinolin-2-ylmethyl}-3,8-diaza-bicyclo[3.2.1]oct-3-yl)-ethanone]	0.28	140

Now from value to compound:

IC50 (human LTA4 hydrolase) [nM]	IC50 [1] [nM]	Compound
0.065	66	c1cc(-c2ccc(Oc3ccc4nc(CN5CCCC5)ccc4c3)cc2)[nH]n1 [Example 243, 6-[4-(2H-Pyrazol-3-yl)-phenoxy]-2-pyrrolidin-1-ylmethyl-quinoline]
0.47	190	CC(=O)N[C@@H]1CCN(CCn2cc3cc(Oc4ccc(-c5ccn[nH]5)cc4)ccc3n2)C1 [Example 200, N-[(R)-1-(2-{5-[4-(2H-Pyrazol-3-yl)-phenoxy]-indazol-2-yl}-ethyl)-pyrrolidin-3-yl]-acetamide]
0.35	99	CN(C)CC1CCc2cc(Oc3ccc(-c4ccn[nH]4)cc3)ccc2O1 (stereo not shown) [Example 8, dimethyl-{6-[4-(2H-pyrazol-3-yl)-phenoxy]-chroman-2-ylmethyl}-amine]
2.4	810	O=C(N1CCN(Cc2ccc3cc(Oc4ccc(-c5ccn[nH]5)cc4)ccc3n2)CC1)C1(O)CC1 [Example 15, (1-hydroxy-cyclopropyl)-(4-{6-[4-(2H-pyrazol-3-yl)-phenoxy]-quinolin-2-ylmethyl}-piperazin-1-yl)-methanone]
0.91	190	c1cc(-c2ccc(Oc3ccc4c(cnn4CCN4CCOCC4)c3)cc2)[nH]n1 [Example 102, 1-(2-Morpholin-4-yl-ethyl)-5-[4-(2H-pyrazol-3-yl)-phenoxy]-1H-indazole]
0.17	150	COCCN(Cc1nc2cc(Oc3ccc(-c4ccn[nH]4)cc3)ccc2[nH]1)C(C)C [Example 183, Isopropyl-(2-methoxy-ethyl)-{5-[4-(2H-pyrazol-3-yl)-phenoxy]-1H-benzoimidazol-2-ylmethyl}-amine]
0.98	240	CC(=O)N1CC(CN(C)Cc2ccc3cc(Oc4ccc(-c5ccn[nH]5)cn4)ccc3n2)C1 [Example 36, 1-{3-[(Methyl-{6-[5-(2H-pyrazol-3-yl)-pyridin-2-yloxy]-quinolin-2-ylmethyl}-amino)-methyl]-azetidin-1-yl}-ethanone]
0.086	130	CN1CCC[C@H]1Cc1nc2cc(Oc3ccc(-c4ccn[nH]4)cc3)ccc2[nH]1 [Example 89, 2-((S)-1-Methyl-pyrrolidin-2-ylmethyl)-5-[4-(2H-pyrazol-3-yl)-phenoxy]-1H-benzoimidazole]
0.77	200	O=C1OCCN1C1CCN(CC2Cc3ccc(Oc4ccc(-c5ccn[nH]5)cc4)cc3O2)CC1 (stereo not shown) [Example 203, 3-(1-{6-[4-(2H-Pyrazol-3-yl)-phenoxy]-2,3-dihydro-benzofuran-2-ylmethyl}-piperidin-4-yl)-oxazolidin-2-one]
0.64	260	NC(=O)C1CCN(CC2Cc3ccc(Oc4ccc(-c5ccn[nH]5)cc4)cc3O2)CC1 (stereo not shown) [Example 144, 1-{6-[4-(2H-Pyrazol-3-yl)-phenoxy]-2,3-dihydro-benzofuran-2-ylmethyl}-piperidine-4-carboxylic acid amide]
0.16	230	CC(C)(C)C(=O)N1CCN(Cc2nc3cc(Oc4ccc(-c5ccn[nH]5)cc4)ccc3[nH]2)CC1 [Example 70, 2,2-Dimethyl-1-(4-{5-[4-(2H-pyrazol-3-yl)-phenoxy]-1H-benzoimidazol-2-ylmethyl}-piperazin-1-yl)-propan-1-one]
0.19	110	CN(Cc1nc2cc(Oc3ccc(-c4ccn[nH]4)cc3)ccc2[nH]1)CC1CCOCC1 [Example 159, Methyl-{5-[4-(2H-pyrazol-3-yl)-phenoxy]-1H-benzoimidazol-2-ylmethyl}-(tetrahydro-pyran-4-ylmethyl)-amine]
0.36	120	CN(Cc1nc2cc(Oc3ccc(-c4ccn[nH]4)cc3)ccc2[nH]1)CC1COCCO1 (stereo not shown) [Example 87, [1,4]Dioxan-2-ylmethyl-methyl-{5-[4-(2H-pyrazol-3-yl)-phenoxy]-1H-benzoimidazol-2-ylmethyl}-amine]
